Measurements published in US20250351832A1, “PHYTOCHEMICALS AS BIOPESTICIDES AND BIOSTIMULANTS” (KAY BEE BIO ORGANICS PVT. LTD., priority 2024, published 2025).
Like-named read-outs stand apart in the source and are kept apart here.

Experiments:
Spodoptera litura [1] = conditions: Spodoptera litura 3rd instar on cabbage plants, dose 1 ml/gm/lit. spray
Spodoptera litura [2] = conditions: Spodoptera litura on castor leaves; dose 1 ml/gm/lit.; 10 insects/treatment; 72 hrs after application
Helicoverpa armigera [3] = conditions: Helicoverpa armigera 3rd instar on chickpea plants, dose 1 ml/gm/lit. spray
Mealy Bug [4] = conditions: Mealy Bug on cotton leaves, dose 1 ml/gm/lit., 48 Hrs.
Helicoverpa armigera [5] = conditions: Helicoverpa armigera on okra fruits, dose 1 ml/gm/lit., 72 Hrs.
Aphid [6] = conditions: Dose 1 ml/gm/lit.
Aphid [7] = conditions: Aphids on cotton plants, green house; dose 1 ml/gm/lit.; 10 insects/plant, 10 plants/treatment; 48 hrs
Thrips [8] = conditions: thrips on cotton plants, greenhouse, dose 1 ml/gm/lit. spray
Alternaria alternata [9] = experiment: Alternaria leaf spot/blight on inoculated tomato plants (Ex. 28); type: in vivo; conditions: tomato plants, Alternaria alternata; after 7 days; dose 1 ml/gm/lit
Mite [10] = conditions: Dose 1 ml/gm/lit.
Aphid [11] = experiment: whole plant or invertebrate; conditions: 48 h
chili seedlings = experiment: Response of chili plants, greenhouse growth (Ex. 31); type: in vivo; conditions: chili seedlings, dose 1 ml/gm/lit
Mealy Bug [12] = conditions: mealy bug on cotton plants, green house, dose 1 ml/gm/lit. spray
Thrips [13] = conditions: Thrips on cotton leaves; dose 1 ml/gm/lit.; 10 insects/treatment; 48 hrs after application
tomato seedlings = experiment: Response of tomato plants, greenhouse growth (Ex. 30); type: in vivo; conditions: tomato seedlings, dose 1 ml/gm/lit
Alternaria alternata [14] = experiment: In vitro poisoned food technique against fungus (Ex. 20); type: cell-based
Thrips [15] = experiment: whole plant or invertebrate; conditions: in Gossypium hirsutum, 48 h
[16] = cited from earlier work
Spodoptera litura [17] = experiment: whole plant or invertebrate; conditions: 72 h
Mite [18] = conditions: mite on okra plants, green house, dose 1 ml/gm/lit. spray
[19] = 72 hrs, corrected for water control
[20] = 10 insects/treatment, 4 replications
[21] = 48 hrs, corrected for water control
[22] = read-out: % Corrected Mortality at 48 Hrs.
[23] = read-out: % Mortality at 48 Hrs.
[24] = Table 13, descriptive, no test described

In the case of CCCCCCCCCCCCCCCC(=O)O [Palmitic acid], the “% Mortality at 72 Hrs.” value (Spodoptera litura [1]; 72 hrs after application) is reported as 27.50%, the “% Corrected Mortality at 72 Hrs.” value (Spodoptera litura [1]; [19]) is reported as 23.68% and the “Total No. of dead insect at 72 Hrs.” value (Spodoptera litura [2]) is reported as 2.50. For the same compound, the “% Mortality at 72 Hrs.” value (Helicoverpa armigera [3]; 72 hrs after application) was 40.00%, the “% Corrected Mortality at 72 Hrs.” value (Helicoverpa armigera [3]; [19]) was 40.00% and the “Total No. of dead insect at 48 Hrs.” value (Mealy Bug [4]; [20]) was 6.50. The “% Mortality at 48 Hrs.” value (Mealy Bug [4]) was 65.00%, the “% Corrected Mortality at 48 Hrs.” value (Mealy Bug [4]; corrected for water control) was 63.16% and the “Total No. of dead insect at 72 Hrs.” value (Helicoverpa armigera [5]; [20]) was 4.50. The “% Mortality at 72 Hrs.” value (Helicoverpa armigera [5]) was 45.00%, the “% Corrected Mortality at 72 Hrs.” value (Helicoverpa armigera [5]; corrected for water control) was 45.00% and the “Total No. of dead insect at 48 Hrs.” value (Aphid [6]; 10 insects/treatment, 4 replications, cotton leaves) was 6.00. The “% Corrected Mortality at 48 Hrs.” value (Aphid [6]; 48 hrs) was 54.29%, the “% Mortality at 48 Hrs.” value (Aphid [6]; 48 hrs) was 60.00% and the “Total No. of dead insect at 48 Hrs.” value (Aphid [7]) was 70.00. The “% Mortality at 48 Hrs.” value (Thrips [8]; 48 hrs after application) was 40.00%, the “Total No. of dead insect at 48 Hrs.” value (Thrips [8]; 48 hrs after application) was 40.00 and the “% Corrected Mortality at 48 Hrs.” value (Thrips [8]; [21]) was 33.33%. The “% Disease reduction over Control” value (Alternaria alternata [9]) was 50.41%, the “Total No. of dead insect at 48 Hrs.” value (Mite [10]; 10 insects/treatment, 4 replications, okra leaves) was 4.25 and the “% Corrected Mortality at 48 Hrs.” value (Mite [10]; 48 hrs) was 37.84%. For the same compound, the “% Mortality at 48 Hrs.” value (Mite [10]; 48 hrs) was 42.50%, the mortality at 1 mL or g/L (Aphid [11]; [22]) was 64.7% and the mortality at 1 mL or g/L (Aphid [11]; [23]) was 70%. The “CCI 5th Day” value (chili seedlings; 5th day after application) was 13.04, the “Plant Height (cm) 5th Day” value (chili seedlings; 5th day after application) was 6.30 cm and the “CCI % Increase over pre on 10th Day” value (chili seedlings; 10th day) was 56.37%. For the same compound, the “Plant Height % Increase over pre on 10th Day” value (chili seedlings; 10th day) was 68.98%, the “Root Lenght (cm) 10th Day” value (chili seedlings; 10th day) was 4.41 cm and the “Stem Girth % Increase over pre on 10th Day” value (chili seedlings; 10th day) was 58.78%. The “CCI 10th Day” value (chili seedlings; 10th day after application) was 15.95, the “Plant Height (cm) 10th Day” value (chili seedlings; 10th day after application) was 7.3 cm and the “Root Lenght % Increase over control” value (chili seedlings; 10th day, vs water control) was 61.00%. The “% Mortality at 48 Hrs.” value (Mealy Bug [12]; 48 hrs after application) was 55.00%, the “Total No. of dead insect at 48 Hrs.” value (Mealy Bug [12]; 48 hrs after application) was 55.00 and the “% Corrected Mortality at 48 Hrs.” value (Mealy Bug [12]; [21]) was 50.00%. For the same compound, the “Total No. of dead insect at 48 Hrs.” value (Thrips [13]) was 4.25, the “Plant Height 5th Day” value (tomato seedlings; 5th day after application) was 7.14 cm and the “Stem Girth 5th Day” value (tomato seedlings; 5th day after application) was 1.79 mm. The “Plant Height 10th Day” value (tomato seedlings; 10th day after application) was 8.54 cm, the “Stem Girth 10th Day” value (tomato seedlings; 10th day after application) was 2.32 mm and the “Plant Height % Increase over pre on 10th Day” value (tomato seedlings; 10th day) was 41.16%. For the same compound, the “Stem Girth % Increase over pre on 10th Day” value (tomato seedlings; 10th day) was 76.92%, the “CCI 5th Day” value (tomato seedlings; 5th day after application) was 13.26 and the “CCI % Increase over pre on 10th Day” value (tomato seedlings; 10th day) was 33.42%. For the same compound, the “Root Length (cm) 10th Day” value (tomato seedlings; 10th day) was 4.95 cm, the “CCI 10th Day” value (tomato seedlings; 10th day after application) was 14.89 and the “Root Length % Increase over control” value (tomato seedlings; 10th day, vs water control) was 48.91%. The inhibition of growth at 1 mL or g/L (Alternaria alternata [14]; […]) was 34.1%, the “Mean colony Diameter (mm)” value (Alternaria alternata [14]; poisoned food technique, PDA medium, dose 1 ml/gm/lit., after seven days) was 58.00 mm and the mortality at 1 mL or g/L (Thrips [15]; [22]) was 34.3%. The mortality at 1 mL or g/L (Thrips [15]; [23]) was 42.5%, the “Acaricidal Activity - Mode of action” value [16, 24] was “Exhibited potent acaricidal” and the “Antifungal Activity - Mode of action” value [16, 24] was “Strongest antifungal”. The “Bactericidal Activity - Mode of action” value [16, 24] was “Destroyed or disintegrated”, the “Nematicidal Activity - Mode of action” value [16, 24] was “Repelling nematodes” and the “Phytotonic Effect” value ([16]; Table 13, effect on plants, descriptive) was “Optimize soil”. The mortality at 1 mL or g/L (Spodoptera litura [17]; read-out: % Corrected Mortality at 72 Hrs.) was 21.1%, the mortality at 1 mL or g/L (Spodoptera litura [17]; read-out: % Mortality at 72 Hrs.) was 25% and the “% Mortality at 48 Hrs.” value (Mite [18]; 48 hrs after application) was 45.00%. For the same compound, the “Total No. of dead insect at 48 Hrs.” value (Mite [18]; 48 hrs after application) was 45.00 and the “% Corrected Mortality at 48 Hrs.” value (Mite [18]; [21]) was 42.11%.
